Test results: ChEMBL document CHEMBL3638030, “IC50 data for the L-type calcium channel extracted from a set of literature articles”; call rule not given here

Columns and labels:
[1] = biological target: T1, Voltage-dependent L-type calcium channel subunit alpha-1C (Cavia porcellus, UniProt O35505); experiment: (§1) Inhibition of Cav1.2 calcium current measured using whole cell patch clamp in guinea pig ventricular myocytes; format: functional, cell-based, Heart, Ventricular myocyte; set-up: ca sol conc 1.8 mM, temp 24-26 C
T1 sequence (O35505 whole entry): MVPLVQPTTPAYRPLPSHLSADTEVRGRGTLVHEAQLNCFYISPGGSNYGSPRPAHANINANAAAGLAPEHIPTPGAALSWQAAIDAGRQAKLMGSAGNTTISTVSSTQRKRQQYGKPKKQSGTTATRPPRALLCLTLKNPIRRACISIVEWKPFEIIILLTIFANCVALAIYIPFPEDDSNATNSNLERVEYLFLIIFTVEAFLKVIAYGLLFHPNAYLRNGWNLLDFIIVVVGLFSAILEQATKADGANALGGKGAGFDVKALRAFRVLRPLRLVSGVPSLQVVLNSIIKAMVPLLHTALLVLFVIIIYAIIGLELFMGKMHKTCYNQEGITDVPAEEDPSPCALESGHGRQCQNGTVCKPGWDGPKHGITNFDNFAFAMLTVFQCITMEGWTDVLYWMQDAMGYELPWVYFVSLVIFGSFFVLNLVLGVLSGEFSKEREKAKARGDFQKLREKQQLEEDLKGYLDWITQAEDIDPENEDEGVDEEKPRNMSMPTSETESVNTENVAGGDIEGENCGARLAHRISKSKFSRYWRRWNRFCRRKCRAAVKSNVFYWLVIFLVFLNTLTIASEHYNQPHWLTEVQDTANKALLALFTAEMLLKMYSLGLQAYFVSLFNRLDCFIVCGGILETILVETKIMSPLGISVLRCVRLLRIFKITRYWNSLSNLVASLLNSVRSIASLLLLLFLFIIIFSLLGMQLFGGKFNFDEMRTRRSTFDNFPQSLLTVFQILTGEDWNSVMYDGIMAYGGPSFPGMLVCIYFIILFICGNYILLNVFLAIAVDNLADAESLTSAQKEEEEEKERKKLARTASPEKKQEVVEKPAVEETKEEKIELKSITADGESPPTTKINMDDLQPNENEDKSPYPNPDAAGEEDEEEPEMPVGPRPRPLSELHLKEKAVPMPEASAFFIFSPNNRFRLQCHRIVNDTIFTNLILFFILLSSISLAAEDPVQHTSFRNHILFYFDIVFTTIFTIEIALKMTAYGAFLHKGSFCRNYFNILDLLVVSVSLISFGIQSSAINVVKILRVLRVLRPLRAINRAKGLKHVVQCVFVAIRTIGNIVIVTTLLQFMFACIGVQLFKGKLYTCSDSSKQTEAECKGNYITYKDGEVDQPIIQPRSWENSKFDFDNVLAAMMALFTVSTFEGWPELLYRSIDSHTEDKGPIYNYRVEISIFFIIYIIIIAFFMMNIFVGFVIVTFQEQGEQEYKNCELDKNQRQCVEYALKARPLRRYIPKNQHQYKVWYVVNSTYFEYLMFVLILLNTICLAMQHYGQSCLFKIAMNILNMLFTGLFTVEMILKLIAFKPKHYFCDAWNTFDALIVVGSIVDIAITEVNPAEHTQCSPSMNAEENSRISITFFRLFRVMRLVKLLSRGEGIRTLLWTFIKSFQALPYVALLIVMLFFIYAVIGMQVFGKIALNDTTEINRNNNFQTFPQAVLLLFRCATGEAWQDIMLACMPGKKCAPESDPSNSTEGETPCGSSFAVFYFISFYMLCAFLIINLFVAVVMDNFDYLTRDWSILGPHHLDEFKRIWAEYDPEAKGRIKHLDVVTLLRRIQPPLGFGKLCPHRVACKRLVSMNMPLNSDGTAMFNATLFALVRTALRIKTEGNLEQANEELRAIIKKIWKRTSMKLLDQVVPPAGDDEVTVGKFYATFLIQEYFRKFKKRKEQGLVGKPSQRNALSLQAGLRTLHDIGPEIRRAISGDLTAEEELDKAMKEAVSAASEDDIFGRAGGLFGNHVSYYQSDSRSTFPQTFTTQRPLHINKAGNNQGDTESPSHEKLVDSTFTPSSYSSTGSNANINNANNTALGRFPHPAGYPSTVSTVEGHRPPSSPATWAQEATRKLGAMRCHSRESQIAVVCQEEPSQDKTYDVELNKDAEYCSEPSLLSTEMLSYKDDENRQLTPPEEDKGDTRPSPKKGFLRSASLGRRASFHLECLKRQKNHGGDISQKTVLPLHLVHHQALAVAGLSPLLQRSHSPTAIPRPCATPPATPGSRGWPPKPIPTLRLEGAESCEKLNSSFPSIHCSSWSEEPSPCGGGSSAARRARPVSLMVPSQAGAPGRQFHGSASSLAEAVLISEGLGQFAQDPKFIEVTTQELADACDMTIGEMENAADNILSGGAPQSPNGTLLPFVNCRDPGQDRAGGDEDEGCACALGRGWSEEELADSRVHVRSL

[2] = biological target: T1, Voltage-dependent L-type calcium channel subunit alpha-1C; experiment: as §1; format: functional, cell-based, Heart, Ventricular myocyte; set-up: ca sol conc 1.8 mM
[3] = Inhibition of Cav1.2 calcium current measured using whole cell patch clamp in mouse/rat NG108-15; format: functional, cell-based; set-up: ca sol conc 1.8 mM, temp 20-25 C
[4] = biological target: T2, Voltage-dependent L-type calcium channel subunit alpha-1C (Rattus norvegicus, UniProt P22002); experiment: Inhibition of Cav1.2 calcium current measured using whole cell patch clamp in rat atrial myocytes; format: functional, cell-based, Heart, Cardiac Muscle Cell; set-up: ca sol conc 2 mM, temp 22-24 C
T2 sequence (P22002 whole entry): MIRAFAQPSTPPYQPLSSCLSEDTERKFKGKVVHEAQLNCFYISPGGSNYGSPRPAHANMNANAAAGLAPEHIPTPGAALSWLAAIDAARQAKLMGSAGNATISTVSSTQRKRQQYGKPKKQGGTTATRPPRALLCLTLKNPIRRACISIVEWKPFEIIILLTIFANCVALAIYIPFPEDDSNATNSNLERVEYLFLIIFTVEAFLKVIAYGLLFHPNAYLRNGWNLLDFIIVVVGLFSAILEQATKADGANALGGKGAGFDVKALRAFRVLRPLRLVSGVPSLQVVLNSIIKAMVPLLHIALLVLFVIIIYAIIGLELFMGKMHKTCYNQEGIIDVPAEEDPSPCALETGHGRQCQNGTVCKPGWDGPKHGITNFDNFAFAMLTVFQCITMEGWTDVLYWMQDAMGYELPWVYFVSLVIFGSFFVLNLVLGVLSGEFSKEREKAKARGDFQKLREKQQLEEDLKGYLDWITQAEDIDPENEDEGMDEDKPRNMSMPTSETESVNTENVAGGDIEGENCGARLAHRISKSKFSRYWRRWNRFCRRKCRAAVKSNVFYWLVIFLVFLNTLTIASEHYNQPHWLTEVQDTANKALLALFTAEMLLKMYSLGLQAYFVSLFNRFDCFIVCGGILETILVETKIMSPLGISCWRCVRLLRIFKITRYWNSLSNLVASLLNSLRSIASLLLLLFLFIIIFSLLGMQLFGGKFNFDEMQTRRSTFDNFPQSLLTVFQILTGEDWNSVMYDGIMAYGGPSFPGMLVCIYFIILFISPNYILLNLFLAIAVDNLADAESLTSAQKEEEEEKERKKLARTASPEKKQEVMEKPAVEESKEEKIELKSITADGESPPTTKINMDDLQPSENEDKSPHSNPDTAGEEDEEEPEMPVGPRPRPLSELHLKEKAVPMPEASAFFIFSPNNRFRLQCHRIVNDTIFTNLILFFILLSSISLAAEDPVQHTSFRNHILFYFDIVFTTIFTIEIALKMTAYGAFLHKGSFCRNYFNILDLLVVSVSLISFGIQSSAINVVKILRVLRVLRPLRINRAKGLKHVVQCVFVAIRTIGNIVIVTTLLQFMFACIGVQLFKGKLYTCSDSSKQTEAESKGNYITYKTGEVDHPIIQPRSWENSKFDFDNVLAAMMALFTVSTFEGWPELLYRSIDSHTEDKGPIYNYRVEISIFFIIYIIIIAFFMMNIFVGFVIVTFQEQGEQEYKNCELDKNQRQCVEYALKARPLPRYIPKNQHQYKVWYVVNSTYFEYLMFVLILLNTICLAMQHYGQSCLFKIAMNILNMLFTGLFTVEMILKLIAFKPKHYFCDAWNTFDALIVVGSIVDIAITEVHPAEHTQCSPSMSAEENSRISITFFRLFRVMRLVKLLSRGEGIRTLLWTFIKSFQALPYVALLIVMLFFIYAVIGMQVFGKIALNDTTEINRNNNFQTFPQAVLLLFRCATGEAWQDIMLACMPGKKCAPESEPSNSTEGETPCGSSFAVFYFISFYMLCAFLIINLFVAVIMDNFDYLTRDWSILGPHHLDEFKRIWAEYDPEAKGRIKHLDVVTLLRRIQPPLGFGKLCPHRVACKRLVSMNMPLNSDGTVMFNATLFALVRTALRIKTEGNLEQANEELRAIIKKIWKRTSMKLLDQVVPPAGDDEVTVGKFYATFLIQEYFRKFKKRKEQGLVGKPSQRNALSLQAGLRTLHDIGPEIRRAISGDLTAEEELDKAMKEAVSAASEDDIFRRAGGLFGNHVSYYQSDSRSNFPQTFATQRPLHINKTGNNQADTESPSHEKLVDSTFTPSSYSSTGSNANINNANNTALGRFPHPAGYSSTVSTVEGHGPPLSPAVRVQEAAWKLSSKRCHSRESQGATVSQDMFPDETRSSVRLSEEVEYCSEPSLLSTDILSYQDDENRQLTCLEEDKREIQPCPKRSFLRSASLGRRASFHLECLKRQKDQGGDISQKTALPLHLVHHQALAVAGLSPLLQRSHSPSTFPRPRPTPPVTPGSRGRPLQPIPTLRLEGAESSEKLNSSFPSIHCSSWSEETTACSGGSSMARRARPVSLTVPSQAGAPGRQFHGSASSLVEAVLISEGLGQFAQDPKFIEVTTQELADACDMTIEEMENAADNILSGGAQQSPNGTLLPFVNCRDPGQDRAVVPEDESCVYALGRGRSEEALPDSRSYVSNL

[5] = biological target: T2, Voltage-dependent L-type calcium channel subunit alpha-1C; experiment: Inhibition of Cav1.2 calcium current measured using whole cell patch clamp in rat myocyte; format: functional, Heart, Cardiac Muscle Cell; set-up: ca sol conc 1.8 mM
[6] = biological target: T2, Voltage-dependent L-type calcium channel subunit alpha-1C; experiment: (§2) Inhibition of Cav1.2 calcium current measured using FLIPR in rat aortic A7r5 cells; format: functional, cell-based
[7] = biological target: T1, Voltage-dependent L-type calcium channel subunit alpha-1C; experiment: as §1; format: functional, cell-based, Heart, Ventricular myocyte; set-up: ca sol conc 1.8 mM, temp 19 C
[8] = biological target: T2, Voltage-dependent L-type calcium channel subunit alpha-1C; experiment: Inhibition of Cav1.2 calcium current measured using whole cell patch clamp in rat Artery myocytes; format: functional, cell-based, Tail; set-up: ca sol conc 5 mM, temp 20-22 C
[9] = biological target: T2, Voltage-dependent L-type calcium channel subunit alpha-1C; experiment: (§3) Inhibition of Cav1.2 calcium current measured using whole cell patch clamp in rat ventricular myocytess; format: functional, cell-based, Heart, Ventricular myocyte; set-up: ca sol conc 1.8 mM, temp 20-22 C
[10] = biological target: L-type calcium channel alpha 1C/beta 2A (Oryctolagus cuniculus, UniProt P15381+P54288); experiment: Inhibition of Cav1.2 calcium current measured using whole cell patch clamp in human HEK293 cells transfected with rabbit L-type calcium channel subunits; format: functional, cell-based; set-up: ca sol conc 5 mM, temp room
[11] = biological target: T1, Voltage-dependent L-type calcium channel subunit alpha-1C; experiment: as §1; format: functional, cell-based, Heart, Ventricular myocyte; set-up: ca sol conc 1.8 mM, temp room
[12] = biological target: T3, Voltage-dependent L-type calcium channel subunit alpha-1C (Mus musculus, UniProt Q01815); experiment: (§4) Inhibition of Cav1.2 calcium current measured using whole cell patch clamp in mouse ventricular myocytes; format: functional, cell-based, Heart, Ventricular myocyte; set-up: ca sol conc 2 mM, temp room
[13] = biological target: T2, Voltage-dependent L-type calcium channel subunit alpha-1C; experiment: (§5) Inhibition of Cav1.2 calcium current measured using whole cell patch clamp in rat ventricular myocytes; format: functional, cell-based, Heart, Ventricular myocyte; set-up: ca sol conc 1.8 mM, temp 25 C
[14] = biological target: T3, Voltage-dependent L-type calcium channel subunit alpha-1C; experiment: as §4; format: functional, cell-based, Heart, Ventricular myocyte; set-up: ca sol conc 2 mM, temp room; remark: listed apart in the source
[15] = biological target: T1, Voltage-dependent L-type calcium channel subunit alpha-1C; experiment: as §1; format: functional, cell-based, Heart, Ventricular myocyte; set-up: ca sol conc 0.5 mM
[16] = biological target: T1, Voltage-dependent L-type calcium channel subunit alpha-1C; experiment: as §1; format: functional, cell-based, Heart, Ventricular myocyte; set-up: ca sol conc 1.8 mM, temp 25-27 C
[17] = biological target: Voltage-dependent L-type calcium channel subunit alpha-1C (Homo sapiens, UniProt Q13936); experiment: Inhibition of Cav1.2 calcium current measured using Voltage-clamp 2-electrode in Xenopous Oocyte transfected with human L-type calcium channel; format: functional, cell-based, Xenopus; set-up: ca sol conc 4 - Ba(OH)2 mM, temp 20-22 C
[18] = biological target: T1, Voltage-dependent L-type calcium channel subunit alpha-1C; experiment: as §1; format: functional, cell-based, Heart, Ventricular myocyte; set-up: ca sol conc 1.8 mM; remark: listed apart in the source
[19] = biological target: T2, Voltage-dependent L-type calcium channel subunit alpha-1C; experiment: as §2; format: functional, cell-based; remark: listed apart in the source
[20] = biological target: T2, Voltage-dependent L-type calcium channel subunit alpha-1C; experiment: as §5; format: functional, cell-based, Heart, Ventricular myocyte; set-up: ca sol conc 2 mM, temp room
[21] = biological target: T3, Voltage-dependent L-type calcium channel subunit alpha-1C; experiment: as §4; format: functional, cell-based, Heart, Ventricular myocyte; set-up: ca sol conc 1.8 mM, temp room
[22] = biological target: T4, Voltage-dependent L-type calcium channel subunit alpha-1C (Oryctolagus cuniculus, UniProt P15381); experiment: (§6) Inhibition of Cav1.2 calcium current measured using whole cell patch clamp in rabbit ventricular myocytes; format: functional, cell-based, Heart, Ventricular myocyte; set-up: ca sol conc 1.8 mM, temp 23 C
[23] = biological target: T4, Voltage-dependent L-type calcium channel subunit alpha-1C; experiment: as §6; format: functional, cell-based, Heart, Ventricular myocyte; set-up: ca sol conc 1.8 mM, temp 23 C; remark: listed apart in the source
[24] = biological target: T2, Voltage-dependent L-type calcium channel subunit alpha-1C; experiment: as §5; format: functional, cell-based, Heart, Ventricular myocyte; set-up: ca sol conc 1.8 mM, temp 25-27 C
[25] = biological target: T2, Voltage-dependent L-type calcium channel subunit alpha-1C; experiment: as §3; format: functional, cell-based, Heart, Ventricular myocyte; set-up: ca sol conc 2 mM, temp 22-24 C
[26] = biological target: T1, Voltage-dependent L-type calcium channel subunit alpha-1C; experiment: as §1; format: functional, cell-based, Heart, Ventricular myocyte; set-up: ca sol conc 1.8 mM, temp 35-36 C
[27] = biological target: T1, Voltage-dependent L-type calcium channel subunit alpha-1C; experiment: as §1; format: functional, cell-based, Heart, Ventricular myocyte; set-up: ca sol conc 5 mM, temp 20-22 C
[28] = biological target: T1, Voltage-dependent L-type calcium channel subunit alpha-1C; experiment: as §1; format: functional, cell-based, Heart, Ventricular myocyte; set-up: ca sol conc 5 mM, temp 20-22 C; remark: listed apart in the source
[29] = biological target: T1, Voltage-dependent L-type calcium channel subunit alpha-1C; experiment: as §1; format: functional, cell-based, Heart, Ventricular myocyte; set-up: ca sol conc 1.8 mM, temp 37 C
[30] = biological target: T3, Voltage-dependent L-type calcium channel subunit alpha-1C; experiment: as §4; format: functional, cell-based, Heart; set-up: ca sol conc 2.5 mM, temp 22-24 C; conditions: ventricular myocyte

With `CC(=O)N(CCOc1cccc2ccccc12)CCc1ccc(NS(C)(=O)=O)cc1` the IC50 [1] was 0.909 µM.

`COc1ccc2c(c1)CN(C(=O)CCN1CCC(Cc3ccccc3)CC1)CCS2` gave an IC50 [2] of 3 µM.

Compound `Cc1cc(O)c(C(C)C)cc1CN1CCCCC1` has an IC50 [3] of 3.6 µM.

In the case of `O=C1CSC(c2ccccc2Cl)c2cc(Cl)ccc2N1` (stereo not given), the IC50 [4] is reported as 0.27 µM.

Compound `CC(/N=C(\NC#N)Nc1ccc(OC(F)F)cc1)C(C)(C)C` (stereo not given) has an IC50 [5] of 24.1 µM.

In the case of `CCC(CC)(CNC(=O)C1CCN(CCc2ccccc2)CC1)c1ccc(F)cc1`, the IC50 [6] is reported as 4.4 µM.

`COc1ccc(CCNC(C)COc2c(C)cccc2C)cc1OC` (stereo not given) gave an IC50 [7] of 28.5 µM.

Work on `O=c1cc(-c2ccccc2O)oc2cc(O)cc(O)c12` yielded an IC50 [8] of 45.1 µM.

For `O=C1C=CC[C@H](C[C@@H](O)CCc2ccc(O)cc2)O1`, the IC50 [9] was 3.2 µM.

`COc1ccc2c(c1)c(C1=C(c3c[nH]c4ccccc34)C(=O)NC1=O)cn2CCCN(C)C` gave an IC50 [10] of 20 µM.

Work on `N#Cc1cc2c(OCC(O)CN3CCN(C(c4ccccc4)c4ccccc4)CC3)cccc2[nH]1` (stereo not given) yielded an IC50 [11] of 1.1 µM.

In the case of `COc1ccc(CCN(C)CCCOc2ccc(S(=O)(=O)c3c(C(C)C)c4ccccc4n3C)cc2)cc1OC`, the IC50 [12] is reported as 0.033 µM, the IC50 [13] is reported as 0.024 µM and the IC50 [14] is reported as 0.0041 µM.

For `Cc1cc2c(OCC(O)CN3CCN(C(c4ccccc4)c4ccccc4)CC3)cccc2[nH]1` (stereo not given), the IC50 [11] was 3.6 µM.

Work on `COc1ccc2c(c1OC)C[N+]1(Cc3ccc(Cl)cc3)CCc3cc4c(cc3C1C2)OCO4` (stereo not given) yielded an IC50 [15] of 11.5 µM.

`COc1ccc2c(=O)c3c(n(Cc4ccccc4)c2c1)OCC3=O` showed an IC50 [16] of 4 µM.

`CCN(CC)CC(=O)N1C[C@@H](c2ccc(Cl)cc2)Sc2ccccc21` showed an IC50 [17] of 52 µM.

Compound `COc1cccc(/C=C/CN2CCC(=C3c4ccccc4C=Cc4ccccc43)CC2)c1[N+](=O)[O-]` has an IC50 [2] of 4.91 µM and an IC50 [18] of 0.32 µM.

In the case of `COc1cc(C[C@H](C)[C@@H](C)C(=O)c2ccc(O)c(OC)c2)ccc1O`, the IC50 [16] is reported as 7.5 µM.

`COc1cccc(CCN2CCC(CC(=O)N[C@@H](c3ccc(F)cc3)C(C)C)CC2)c1` gave an IC50 [6] of 2.2 µM and an IC50 [19] of 7 µM.

In the case of `CC(C)[C@@H](NC(=O)CC1CCN(CCc2ccccc2)CC1)c1ccc(F)cc1`, the IC50 [6] is reported as 10 µM.

`CC(C)[C@@H](NC(=O)NC1CCN(CCc2ccccc2)CC1)c1ccc(F)cc1` showed an IC50 [6] of 5 µM.

Work on `CC(C)C(CNC(=O)C1CCN(CCc2ccccc2)CC1)c1ccc(F)cc1` (stereo not given) yielded an IC50 [6] of 3.9 µM.

Work on `COc1ccccc1CCN1CCC(CC(=O)N[C@@H](c2ccc(F)cc2)C(C)C)CC1` yielded an IC50 [6] of 6.8 µM.

For `COCCOc1c(F)cccc1CCN1CCC(CC(=O)N[C@@H](c2ccc(F)cc2)C(C)C)CC1`, the IC50 [6] was 2.1 µM.

Work on `COCCOc1cc(F)ccc1CCN1CCC(CC(=O)N[C@@H](c2ccc(F)cc2)C(C)C)CC1` yielded an IC50 [6] of 1.9 µM.

Compound `COCCOc1ccc(F)cc1CCN1CCC(CC(=O)N[C@@H](c2ccc(F)cc2)C(C)C)CC1` has an IC50 [6] of 3.1 µM.

With `COCCOc1cccc(F)c1CCN1CCC(CC(=O)N[C@@H](c2ccc(F)cc2)C(C)C)CC1` the IC50 [6] was 3.1 µM.

In the case of `COCCOc1ccccc1CCN1CCC(CC(=O)N[C@@H](c2ccc(F)cc2)C(C)C)CC1`, the IC50 [20] is reported as 38 µM.

Compound `CCN1CCC(CC(NC(=O)c2ccc([N+](=O)[O-])cc2)c2ccc(F)cc2)CC1` (stereo not given) has an IC50 [21] of 100 µM.

Compound `CC(C)(C)OC(=O)N1CC2CC(CN(C[C@H](O)COc3ccc(C#N)cc3)C2)C1` has an IC50 [22] of 1.3 µM and an IC50 [23] of 6 µM.

For `O=C1COc2c1c(=O)c1ccc(Br)cc1n2Cc1ccccc1F`, the IC50 [24] was 4.9 µM.

With `CCCCC/C=C\C/C=C\C/C=C/C/C=C\CCCC(=O)NCCO` the IC50 [25] was 0.1 µM.

Work on `CCNCC#CC(C)(C)OC(=O)C(O)(c1ccccc1)C1CCCCC1` (stereo not given) yielded an IC50 [26] of 27 µM.

For `COc1ccc2c(c1OC)[C@@H]1Cc3cc4c(cc3[C@H](C2)N1C)OCO4`, the IC50 [24] was 6.6 µM.

In the case of `CC1=C(C(=O)OC(C)C)[C@@H](c2cccc3nonc23)C([N+](=O)[O-])=C(C)N1`, the IC50 [27] is reported as 0.2 µM and the IC50 [28] is reported as 0.001 µM.

Work on `CC1=C(C(=O)OC(C)C)[C@H](c2cccc3nonc23)C([N+](=O)[O-])=C(C)N1` (mixture of isomers) yielded an IC50 [27] of 0.08 µM.

`O=C1CC(c2ccc(O)cc2)Oc2cc(O)cc(O)c21` (racemic) showed an IC50 [8] of 100 µM.

`COC(=O)C1=CCCN(C)C1` [ARECOLINE] showed an IC50 [29] of 33.7 µM.

In the case of `CC(C)c1c(C(=O)Nc2ccccc2)c(-c2ccccc2)c(-c2ccc(F)cc2)n1CC[C@@H](O)C[C@@H](O)CC(=O)O` [ATORVASTATIN], the IC50 [30] is reported as “inactive at 10nM. Original reference for datapoint is pubmed_id: 17466325”.
